Measured values reported in patent US20100022640A1, “ESTERS OF 2-[…] AND ANTIFUNGAL COMPOSITIONS CONTAINING THEM” (priority 2006, published 2010).
≈ marks a conversion by molar mass, not a printed value.

Columns and labels:
Type in all cases: cell-based
Candida albicans = test: Fungistatic endpoint in inoculated culture medium, Candida albicans; conditions: lowest concentration preventing visible growth, Bushnell-Haas medium with dextrose 10 g/L and yeast extract 0.1 g/L, pH 7.0; for MIC: Candida albicans, read-out: Fungistatic Endpoint (ppm Range) Candida albicans
Method: (§1) The microorganisms involved in these tests were Aspergillis niger, Candida albicans, Trichophyton metagrophytes, and Pichia pastoris. The various esters tested are listed in the following table together with their fungistatic endpoints.
(§2) Fungistatic endpoints were determined by combining the compounds at several dosage levels in a culture medium which had been freshly inoculated with spores of the test organisms. Five mL aliquots were placed in sterile culture tubes. The test compounds dissolved in the appropriate solvent were added to obtain the desired concentration of the compound in the culture medium. Following incubation at suitable conditions, the presence of growth was determined visually at each concentration of the biocide. The lowest concentration of the compound preventing growth was taken as the fungistatic endpoint. Controls containing the solvent alone at the highest dosage were made to insure that no microbial inhibition was produced by the solvent.
(§3) The culture media used in these tests was the Bushnell-Haas medium from Difco. Dextrose at 10 g/L and yeast extract at 0.1 g/L were added to obtain growth of the test organisms. The dilute solution of the Bushnell Haas media which was used in these tests contains: 0.20 g/L magnesium sulfate; 0.02 g/L calcium chloride; 1.00 g/L monopotassium phosphate; 1.00 g/L dipotassium phosphate; 1.00 g/L ammonium nitrate, and 0.05 g/L ferric chloride. The final pH of the media was 7.0±0.2 at 25° C.

[1] = test system: Trichophyton metagrophytes; test: Fungistatic endpoint in inoculated culture medium, T. metagrophytes; conditions: lowest concentration preventing visible growth, Bushnell-Haas medium with dextrose 10 g/L and yeast extract 0.1 g/L, pH 7.0; for MIC: Trichophyton, read-out: Fungistatic Endpoint (ppm Range) T. metagrophytes
Method: as §1, §2, §3

Pichia pastoris = test: Fungistatic endpoint in inoculated culture medium, Pichia pastoris; conditions: lowest concentration preventing visible growth, Bushnell-Haas medium with dextrose 10 g/L and yeast extract 0.1 g/L, pH 7.0; for MIC: Komagataella pastoris, read-out: Fungistatic Endpoint (ppm Range) Pichia. pastoris
Method: as §1, §2, §3

Aspergillis niger = test: Fungistatic endpoint in inoculated culture medium, Aspergillis niger; conditions: lowest concentration preventing visible growth, Bushnell-Haas medium with dextrose 10 g/L and yeast extract 0.1 g/L, pH 7.0; for MIC: read-out: Fungistatic Endpoint (ppm Range) Aspergillis niger
Method: as §1, §2, §3

## CC(=O)OCC(C#N)c1cc(OC(F)F)ccc1Cl (stereo not drawn) [Example 5, 3-acetoxy-2-(2-chloro-5-(difluoromethoxy)phenyl)propanenitrile]
Candida albicans
  MIC: < 16 µg/mL
[1]
  MIC: < 16 µg/mL

## CC(=O)OCC(C#N)c1cc(Cl)ccc1Cl (stereo not drawn) [Example 6, 3-acetoxy-2-(2,5-dichlorophenyl)propanenitrile]
Candida albicans
  MIC: < 16 µg/mL
[1]
  MIC: < 16 µg/mL

## CC(=O)OCC(C#N)c1cc(Cl)ccc1OC(F)F (stereo not drawn) [Example 7, 3-acetoxy-2-(5-chloro-2-(difluoromethoxy)phenyl)propanenitrile]
Candida albicans
  MIC: 32 µg/mL (≈ 110 µM)
[1]
  MIC: 32 µg/mL (≈ 110 µM)
Pichia pastoris
  MIC: 32 µg/mL (≈ 110 µM)

## CC(=O)OCC(C#N)c1ccc(Cl)cc1Cl (stereo not drawn) [Example 8, 3-acetoxy-2-(2,4-dichlorophenyl)propanenitrile]
Candida albicans
  MIC: 16 µg/mL (≈ 62 µM)
[1]
  MIC: 16 to 32 µg/mL (≈ 62 to 124 µM)
Pichia pastoris
  MIC: < 16 µg/mL

## CC(=O)OCC(C#N)c1ccccc1C(F)(F)F (stereo not drawn) [Example 10, 3-acetoxy-2-(2-(trifluoromethyl)phenyl)propanenitrile]
Aspergillis niger
  MIC: 128 to 256 µg/mL (≈ 498 to 995 µM)
Candida albicans
  MIC: > 64 µg/mL
[1]
  MIC: > 64 µg/mL
Pichia pastoris
  MIC: > 64 µg/mL

## CC(=O)OCC(C#N)c1ccc(Cl)cc1C (stereo not drawn) [Example 12, 3-acetoxy-2-(4-chloro-2-methylphenyl)propanenitrile]
Aspergillis niger
  MIC: 64 to 128 µg/mL (≈ 269 to 539 µM)
Candida albicans
  MIC: > 64 µg/mL
[1]
  MIC: > 64 µg/mL
Pichia pastoris
  MIC: > 64 µg/mL

## CC(=O)OCC(C#N)c1ccccc1Cl (stereo not drawn) [Example 14, 3-acetoxy-2-(2-chlorophenyl)propanenitrile]
Candida albicans
  MIC: 16 µg/mL (≈ 71.5 µM)
[1]
  MIC: 32 µg/mL (≈ 143 µM)
Pichia pastoris
  MIC: 16 µg/mL (≈ 71.5 µM)

## CC(=O)OCC(C#N)c1ccc(Cl)cc1 (stereo not drawn) [Example 16, 3-acetoxy-2-(4chlorophenyl)propanenitrile]
Candida albicans
  MIC: < 16 µg/mL
[1]
  MIC: < 16 µg/mL
Pichia pastoris
  MIC: < 16 µg/mL

## CC(=O)OC(C)C(C#N)c1ccc(Cl)cc1 (stereo not drawn) [Example 19, 3-acetoxy-2-(4-chlorophenyl)butanenitrile]
Candida albicans
  MIC: 16 to 32 µg/mL (≈ 67.3 to 135 µM)
[1]
  MIC: 32 to 64 µg/mL (≈ 135 to 269 µM)
Pichia pastoris
  MIC: 16 µg/mL (≈ 67.3 µM)

## COCC(OC(C)=O)C(C#N)c1ccc(Cl)cc1 (stereo not drawn) [Example 20, 3-acetoxy-2-(4-chlorophenyl)-4-methoxybutanenitrile]
Aspergillis niger
  MIC: 64 to 128 µg/mL (≈ 239 to 478 µM)

## CC(=O)OCC(C#N)c1ccc(C)cc1 (stereo not drawn) [Example 21, 3-acetoxy-2-(4-methylphenyl)propanenitrile]
Aspergillis niger
  MIC: 64 µg/mL (≈ 315 µM)

## CC(=O)OC(C)C(C#N)c1ccc(C)cc1 (stereo not drawn) [Example 22, 3-acetoxy-2-(4-methylphenyl)butanenitrile]
Aspergillis niger
  MIC: 128 to 256 µg/mL (≈ 589 to 1180 µM)

## COCC(OC(C)=O)C(C#N)c1ccc(C)cc1 (stereo not drawn) [Example 23, 3-acetoxy-2-(4-methylphenyl)-4methoxybutanenitride]
Aspergillis niger
  Fungistatic Endpoint (ppm Range) Aspergillis niger: 128-256 ppm

## COc1ccc(C(C#N)COC(C)=O)cc1 (stereo not drawn) [Example 24, 3-acetoxy-2-(4-methoxyphenyl)propanenitrile]
Aspergillis niger
  MIC: 128 µg/mL (≈ 584 µM)

## COc1ccc(C(C#N)C(C)OC(C)=O)cc1 (stereo not drawn) [Example 25, 3-acetoxy-2-(4-methoxyphenyl)butanentrile]
Aspergillis niger
  Fungistatic Endpoint (ppm Range) Aspergillis niger: 128-256 ppm

## COCC(OC(C)=O)C(C#N)c1ccc(OC)cc1 (stereo not drawn) [Example 26, 3-acetoxy-2-(4-methoxyphenyl)-4-methoxybutanenitrile]
Aspergillis niger
  MIC: 128 to 256 µg/mL (≈ 486 to 972 µM)

## CCOC(=O)C(OC(C)=O)C(C#N)c1ccc(Cl)cc1 (stereo not drawn) [Example 28, ethyl 2-acetoxy-3-(4-chlorophenyl)-3-cyanopropanoate]
Aspergillis niger
  MIC: 128 µg/mL (≈ 433 µM)

## N#CC(COC=O)c1cc(OC(F)F)ccc1Cl (stereo not drawn) [Example 29, 2-(2-chloro-5-(difluoromethoxy)phenyl)-3-(formyloxy)propanenitrile]
Aspergillis niger
  MIC: < 16 µg/mL
Candida albicans
  MIC: < 16 µg/mL
[1]
  MIC: < 16 µg/mL

## N#CC(COC=O)c1cc(Cl)ccc1Cl (stereo not drawn) [Example 30, 2-(2,5-dichlorophenyl)-3-(formyloxy)propanenitrile]
Aspergillis niger
  MIC: < 16 µg/mL
Candida albicans
  MIC: < 16 µg/mL
[1]
  MIC: < 16 µg/mL

## N#CC(COC(=O)Cc1ccccc1)c1cc(OC(F)F)ccc1Cl (stereo not drawn) [Example 31]
Candida albicans
  Fungistatic Endpoint (ppm Range) Candida albicans: >64 ppm
[1]
  Fungistatic Endpoint (ppm Range) T. metagrophytes: <16 ppm
Pichia pastoris
  Fungistatic Endpoint (ppm Range) Pichia. pastoris: 64 ppm

## CC(=O)OCC(C#N)c1ccccc1 (stereo not drawn) [Example 32, 3-acetoxy-2-phenylpropanenitrile]
Candida albicans
  MIC: > 64 µg/mL
[1]
  MIC: 16 µg/mL (≈ 84.6 µM)
Pichia pastoris
  MIC: 16 to 32 µg/mL (≈ 84.6 to 169 µM)

## CC(=O)OCC(C#N)c1cccc(Oc2ccccc2)c1 (stereo not drawn) [Example 33]
Aspergillis niger
  Fungistatic Endpoint (ppm Range) Aspergillis niger: 128-256 ppm
